Measurements from paper PMC10600239, “Selective MCL-1 inhibitor ABBV-467 is efficacious in tumor models but is associated with cardiac troponin increases in patients” (Communications Medicine, 2023).
Several values for one entry are separate records, joined by “and”; a condition that tells them apart may be missing. Equal values may be shown once. Read-outs that look alike come from different tables or passages of the source. Values belong to the molecule of their own block, whether it stands above or below them.

Legend:
[1] = test system: DLD-1 cells; assay: In vitro cell viability assay (CellTiter-Glo); format: cell-based, human
Method: (§1) All cell lines were grown and treated in RPMI 1640 or Dulbecco’s modified Eagle medium (Sigma, St. Louis, MO) supplemented with 10% fetal bovine serum (Gibco) or 10% human serum (Sigma) and maintained in a humidified incubator at 5% CO2 and 37 °C. DLD-1, MV4-11, NCI-H929 (all ATCC, Manassas, VA, USA) and AMO-1 (DSMZ, Braunschweig, Germany) cells were plated 4000 cells per well in 384-well tissue culture plates and treated with compounds of interest for 24 h at 37 °C, 5% CO2 humidified incubator. Each concentration was tested in duplicate at least 3 separate times. Adherent cells were allowed to adhere overnight prior to treatment. Alternatively, AMO-1 or NCI-H929 cells were treated with ABBV-467 for the indicated contact times (1–24 h) at 37 °C in a 5% CO2 humidified incubator and washed 3 times with compound-free media prior to incubation for the remainder of a 24-h treatment period. Cell viability was subsequently determined using CellTiter-Glo (Promega, Madison, WI, USA) according to the manufacturer’s instructions.
(§2) For in vitro viability assays, mean EC50 and EC90 values were determined from the resulting dose-response curves from at least 3 independent experiments, and depict the mean ± standard error of the mean.

[2] = test system: MV4-11 cells; assay: In vitro cell viability assay (CellTiter-Glo); format: cell-based, human; settings: Homo sapiens
Method: as §1, §2

[3] = test system: AMO-1 cells; assay: In vitro cell viability assay (CellTiter-Glo); format: cell-based, human; settings: Homo sapiens
Method: as §1, §2
(§3) Fig. 2 Apoptosis induced by ABBV-467 is mechanism based and induces cell death in MCL-1-dependent cell lines after short target engagement periods. H929 cells were treated with ABBV-467 in the presence or absence of the pan-caspase inhibitor z-VAD-fmk (50 µM) and the impact on caspase-3/7 activation (a), mitochondrial membrane potential (ΔΨm; b), and apoptosis (c) determined. Alternatively, BAK-deficient SKBR3 cells were treated with ABBV-467 for 24 h and the impact on cell viability compared with the parental cell line, determined by CellTiter-Glo. Inset depicts a western blot of BAK and BAX expression in SKBR3 cell variants using GAPDH as a loading control. Each of the 3 proteins were probed on separate blots (d). Data in (a–d) are presented as the mean ± standard error of the mean. H929 and AMO-1 cells were treated with ABBV-467 at the indicated concentrations and the impact on caspase-3/7 activation and viability (DRAQ7-positive) cells determined over time by Incucyte®. Data are presented as the mean ± standard deviation (e). H929 or AMO-1 cells were cultured in media containing 10% human serum and treated with ABBV-467 for the indicated contact times. Cells were subsequently washed 3 times with drug-free media and incubated in drug-free media for the remainder of the 24-h treatment period at 37 °C before cell viability was determined by CellTiter-Glo. Mean EC50 and EC90 values were determined from the resulting dose-response curves from at least 3 independent experiments, each assessed in quadruplicate, and depict the mean ± standard error of the mean. Presented ABBV-467 dose-response curves in H929 and AMO-1 cells were compiled from at least 3 independent experiments (f).

[4] = test system: H929 cells; assay: In vitro cell viability assay (CellTiter-Glo); format: cell-based, human; settings: Homo sapiens
Method: as §1, §2, §3

[5] = target: T1, BCL2-A1 (Homo sapiens, UniProt Q16548); assay: Time-resolved FRET binding assay
T1 sequence (Q16548 1-175): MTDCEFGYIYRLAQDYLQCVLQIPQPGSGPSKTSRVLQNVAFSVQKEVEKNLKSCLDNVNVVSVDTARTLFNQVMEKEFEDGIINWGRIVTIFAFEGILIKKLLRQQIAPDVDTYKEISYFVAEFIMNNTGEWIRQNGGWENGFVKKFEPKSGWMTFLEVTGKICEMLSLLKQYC
Method: (§4) Binding affinities for MCL-1, BCL-2, BCL-XL, BCL-W, and BCL2-A1 were determined using a time-resolved fluorescence resonance energy transfer (FRET) assay. Test compounds were serially diluted in DMSO starting at […] (20× starting concentration; 100% DMSO followed by a 1:10 dilution of the compound DMSO plate into assay buffer); 10 µL of the compound in 10% DMSO was then transferred into a 384-well plate (low-volume Corning #3673 assay plate). Glutathione S-transferase (GST)-tagged recombinant BCL-2, BCL-XL, MCL-1, BCL-W, or BCL2-A1 protein (1 nM each) were mixed with 100 nM Oregon Green™-labeled f-BAK peptide probe and 1 nM Tb-labeled anti-GST antibody were mixed. Then 10 µL of a 2× protein/probe/antibody mix was added to each well of increasing concentrations of test compound in assay buffer (20 mM potassium phosphate, pH 7.6, 50 mM NaCl, 1 mM ethylenediaminetetraacetic acid disodium salt dihydrate, 0.05% pluronic acid F-68, 1 mM DL-dithiothreitol) at room temperature (final concentrations listed in Supplementary Table S2). The samples were then mixed on a shaker for 1 min and incubated for an additional 1 h at room temperature. For each assay plate, a probe/antibody and protein/antibody/probe mixture were included as a negative and a positive control, respectively. Fluorescence was measured on the EnVision™ (Perkin Elmer) using a 340/35-nm excitation filter and 520/525- (F-Bak) and 495/510-nm (Tb-labeled anti-glutathione S-transferase [GST] antibody) emission filters. Dissociation constants were determined using Wang’s equation[35]. The time-resolved FRET assay can be performed in the presence of varying concentrations of human serum to determine apparent half-maximal inhibitory concentration after serum protein binding.

[6] = target: T2, BCL-W (Homo sapiens, UniProt Q92843); assay: Time-resolved FRET binding assay
T2 sequence (Q92843 1-193): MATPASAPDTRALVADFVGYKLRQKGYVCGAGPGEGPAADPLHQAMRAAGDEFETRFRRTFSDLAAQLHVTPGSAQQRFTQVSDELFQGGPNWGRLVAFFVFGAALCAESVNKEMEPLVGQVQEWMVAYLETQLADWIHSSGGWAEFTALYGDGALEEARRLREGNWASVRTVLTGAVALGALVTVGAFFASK
Method: as §4

[7] = target: BCL-XL (Homo sapiens, UniProt Q07817); assay: Time-resolved FRET binding assay
Method: as §4

[8] = target: BCL-2 (Homo sapiens, UniProt P10415); assay: Time-resolved FRET binding assay
Method: as §4

[9] = target: human MCL-1 (Homo sapiens, UniProt Q07820); assay: Time-resolved FRET binding assay
Method: as §4, with “Test” for “Binding affinities for MCL-1, BCL-2, BCL-XL, BCL-W, and BCL2-A1 were determined using a time-resolved fluorescence resonance energy transfer (FRET) assay. Test”

[10] = TR-FRET, arithmetic mean, read-out: Arithmetic Mean Ki, BCL-XL
[11] = TR-FRET, individual determinations, read-out: Individual Ki, BCL-XL
[12] = read-out: TR-FRET, Ki, nM BCL-XL
[13] = TR-FRET, arithmetic mean, read-out: Arithmetic Mean Ki, BCL-2
[14] = TR-FRET, individual determinations, read-out: Individual Ki, BCL-2
[15] = read-out: TR-FRET, Ki, nM BCL-2

Sequence of BCL-XL (Q07817 whole entry): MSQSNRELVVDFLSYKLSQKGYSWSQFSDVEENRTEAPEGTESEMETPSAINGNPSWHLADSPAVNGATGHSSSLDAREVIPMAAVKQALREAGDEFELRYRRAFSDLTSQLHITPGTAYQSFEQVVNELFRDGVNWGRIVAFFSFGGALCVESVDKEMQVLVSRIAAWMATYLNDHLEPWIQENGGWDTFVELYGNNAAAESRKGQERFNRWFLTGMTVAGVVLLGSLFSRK
Sequence of human MCL-1 (Q07820 whole entry): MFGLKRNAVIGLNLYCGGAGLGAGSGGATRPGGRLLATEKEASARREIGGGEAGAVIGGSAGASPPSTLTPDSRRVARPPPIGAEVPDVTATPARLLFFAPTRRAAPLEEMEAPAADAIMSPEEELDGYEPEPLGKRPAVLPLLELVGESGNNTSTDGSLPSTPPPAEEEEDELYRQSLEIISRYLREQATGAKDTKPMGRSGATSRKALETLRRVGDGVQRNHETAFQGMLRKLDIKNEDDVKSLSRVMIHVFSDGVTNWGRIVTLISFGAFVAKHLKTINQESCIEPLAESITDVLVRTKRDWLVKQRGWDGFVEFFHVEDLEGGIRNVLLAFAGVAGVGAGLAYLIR
Sequence of BCL-2 (P10415 whole entry): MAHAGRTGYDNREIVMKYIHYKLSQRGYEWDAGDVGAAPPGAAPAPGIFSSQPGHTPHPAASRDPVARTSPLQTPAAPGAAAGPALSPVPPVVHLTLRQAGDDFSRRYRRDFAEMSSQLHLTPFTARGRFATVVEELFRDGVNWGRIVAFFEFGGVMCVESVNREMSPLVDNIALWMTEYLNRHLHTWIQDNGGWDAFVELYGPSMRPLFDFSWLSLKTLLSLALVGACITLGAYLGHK

EC50 ([1]; DLD-1, individual determinations, listed as MIK665, read-out: Individual EC50): > 1000 nM and > 10000 nM and 4770 nM and 3350 nM and 6620 nM and 4370 nM and 4270 nM and 5810 nM and 4060 nM | EC50 ([1]; Homo sapiens, DLD-1, 24 h, read-out: DLD-1 EC50 (nM, 10% FBS), 10% FBS, 24 h continuous treatment): 4750 nM | EC50 ([2]; MV4-11, 24 h, read-out: MV4-11 EC50 (nM, 10% FBS), 10% FBS, 24 h continuous treatment): 10.9 nM | EC50 ([2]; MV4-11, MV4-11, arithmetic mean, read-out: Arithmetic Mean EC50 µM): 10.9 nM | EC50 ([4]; NCI-H929, 24 h, read-out: H929 EC50 (nM, 10% FBS), 10% FBS, 24 h continuous treatment): 4.75 nM | EC50 ([4]; NCI-H929, NCI-H929, arithmetic mean, read-out: Arithmetic Mean EC50 µM): 4.75 nM | Ki ([5]; TR-FRET, arithmetic mean, read-out: Arithmetic Mean Ki, BCL2-A1): > 468 nM | Ki ([5]; TR-FRET, individual determinations, read-out: Individual Ki, BCL2-A1): > 468 nM | Ki ([5]; read-out: TR-FRET, Ki, nM BCL2-A1): > 468 nM | Ki ([6]; TR-FRET, arithmetic mean, read-out: Arithmetic Mean Ki, BCL-W): > 468 nM | Ki ([6]; TR-FRET, individual determinations, read-out: Individual Ki, BCL-W): > 468 nM | Ki ([6]; read-out: TR-FRET, Ki, nM BCL-W): > 468 nM | Ki [7, 10]: > 660 nM | Ki [7, 11]: > 660 nM | Ki [7, 12]: > 660 nM | Ki [8, 13]: 599 nM | Ki [8, 14]: 319 nM and 376 nM and 955 nM and 745 nM | Ki [8, 15]: 599 nM
SMILES: COc1ccccc1-c1nccc(COc2ccccc2CC(Oc2ncnc3sc(-c4ccc(F)cc4)c(-c4ccc(OCCN5CCN(C)CC5)c(Cl)c4C)c23)C(=O)O)n1 (stereo not shown) [Compound 1, reference compound]
EC50 ([3]; AMO1, 24 h, read-out: AMO-1 EC50 (nM, 10% FBS), 10% FBS, 24 h continuous treatment): 2.06 nM | EC50 ([3]; AMO1, AMO-1, arithmetic mean, read-out: Arithmetic Mean EC50 µM): 2.06 nM

Ki [7, 10]: > 660 nM | Ki [7, 11]: > 660 nM | Ki [7, 12]: > 660 nM | Ki [8, 13]: > 1200 nM | Ki [8, 14]: > 1200 nM | Ki [8, 15]: > 1200 nM | Ki ([9]; TR-FRET, individual determinations, read-out: Individual Ki, MCL1): 2.48 nM and 5.01 nM and 9.14 nM | Ki ([9]; read-out: TR-FRET, Ki, nM MCL-1): 5.54 nM
SMILES: COc1ccccc1-c1nccc(COc2ccc3cc2CC(C(=O)O)Oc2ncnc4sc(-c5ccc(F)cc5)c(c24)-c2ccc(c(Cl)c2C)N(CCN2CCN(C)CC2)C3)n1 (stereo not shown) [Compound 2]
